Experimental data from patent publication US6268391A, “Benzylidene-1,3-dihydro-indol-2-one derivatives a receptor tyrosine kinase inhibitors, particularly of Raf kinases” (Glaxo Wellcome Inc., priority 1997, dated 2001).
pIC50: −log10 of the molar value.

Target: T1, Human cRaf1 (Homo sapiens, UniProt P04049)
T1 construct: poly-histidine (C); made in house
Experiment: Raf kinase assay (cRaf1 assay / Raf/MEK cascade assay)
Assay type: biochemical
Settings: Table 3; read-out: Raf Kinase activity
Procedure: The potency of cRaf1 dependent kinase activity was measured using one of two assay formats. The first measured cRaf1 catalyzed phosphorylation of MEK1, the natural substrate for cRaf1. This assay is referred to as the cRaf1 assay. The second measured the ability of cRaf1 to phosphorylate and activate MEK1. This assay is referred to as the Raf/MEK cascade assay.
Human cRaf1 tagged with poly histidine at the carboxyterminus was expressed in a baculovirus expression system and purfied by Ni chelate affinity chromatography. Human MEK1 was expressed in E. coli as a fusion protein with Glutathione-S-transferase, and purified by glutathione sepharose affinity chromatography. […] Reactions contained cRaf1 (20 nM), MEK1 (100-500 nM), [γ-^32 P]ATP ([…]), Mg^2+ (10 mM), MOPS (50 mM, pH 7.5). Reactions were incubated at room temperature for periods of time ranging from 20-120 minutes. Inhibitors were diluted in 100% DMSO prior to addition to the assay. Reactions were terminated with an equal volume of 0.5% phosphoric acid. MEK1 phosphorylation was detected by scintillation counting following collection of protein onto phosphocellulose filters.
Human cRaf1 and MEK1 were purified as described above. A peptide substrate phosphorylated by MEK1 was used as the final phosphoryl group acceptor. […] Assay conditions were the same as those described above except for the following modifications. Reactions contained cRaf1 (1-5 nM), MEK1 (60 nM), and peptide ([…]).

T1 sequence (P04049 whole entry): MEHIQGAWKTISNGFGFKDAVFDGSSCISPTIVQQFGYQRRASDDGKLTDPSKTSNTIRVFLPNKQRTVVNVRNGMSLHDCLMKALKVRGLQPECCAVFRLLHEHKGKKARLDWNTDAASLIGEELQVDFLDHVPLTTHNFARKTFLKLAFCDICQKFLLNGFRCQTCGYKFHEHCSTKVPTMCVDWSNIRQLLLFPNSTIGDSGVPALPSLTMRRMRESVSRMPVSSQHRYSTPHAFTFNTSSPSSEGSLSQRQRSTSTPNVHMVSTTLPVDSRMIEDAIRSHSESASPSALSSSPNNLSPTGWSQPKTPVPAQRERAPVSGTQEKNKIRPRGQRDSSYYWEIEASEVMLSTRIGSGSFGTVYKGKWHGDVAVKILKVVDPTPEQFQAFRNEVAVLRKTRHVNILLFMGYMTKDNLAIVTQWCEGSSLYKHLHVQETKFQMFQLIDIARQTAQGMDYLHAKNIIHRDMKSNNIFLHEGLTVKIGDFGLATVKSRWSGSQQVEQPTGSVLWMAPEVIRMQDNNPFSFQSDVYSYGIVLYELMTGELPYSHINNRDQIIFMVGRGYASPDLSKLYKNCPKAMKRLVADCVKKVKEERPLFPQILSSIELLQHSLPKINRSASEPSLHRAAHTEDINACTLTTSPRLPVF

## CC(=O)c1ccc2c(c1)C(=Cc1cc(Br)c(O)c(Br)c1)C(=O)N2 [Example 89, 5-Acetyl-3-(3,5-dibromo-4-hydroxy-benzylidene)-1,3-dihydro-indol-2-one]
  pIC50: > 6.00

## CC(=O)c1ccc2c(c1)C(=Cc1cc(Cl)c(O)c(Cl)c1)C(=O)N2 [Example 90, 5-Acetyl-3-(3,5-dichloro-4-hydroxy-benzylidene)-1,3-dihydro-indol-2-one]
  pIC50: > 6.00

## COc1cccc(C(=O)c2ccc3c(c2)C(=Cc2cc(Br)c(O)c(Br)c2)C(=O)N3)c1 [Example 91, 3-(3,5-Dibromo-4-hydroxy-benzylidene)-5-(3-methoxy-benzoyl)-1,3-dihydro-indol-2-one]
  pIC50: > 6.00

## O=C1Nc2ccc(-c3ccccc3)cc2C1=Cc1cc(Br)c(O)c(Br)c1 [Example 92, 3-(3,5-Dibromo-4-hydroxy-benzylidene)-5-phenyl-1,3-dihydro-indol-2-one]
  pIC50: > 6.00

## O=C1Nc2ccc(-c3ccccc3)cc2C1=Cc1cc(Cl)c(O)c(Cl)c1 [Example 93, 3-(3,5-Dichloro-4-hydroxy-benzylidene)-5-phenyl-1,3-dihydro-indol-2-one]
  pIC50: > 6.00

## CCNc1nc(-c2ccc3c(c2)C(=Cc2cc(Br)c(O)c(Br)c2)C(=O)N3)cs1 [Example 94, 3-(3,5-Dibromo-4-hydroxy-benzylidene)-5-(2-(ethylamino)-4H-thiazol-4-yl)-1,3-dihydro-indol-2-one]
  pIC50: > 6.00

## O=C1Nc2ccc(C(=O)c3ccc([N+](=O)[O-])cc3)cc2C1=Cc1cc(Br)c(O)c(Br)c1 [Example 95, 3-(3,5-Dibromo-4-hydroxy-benzylidene)-5-(4-nitro-benzoyl)-1,3-dihydro-indol-2-one]
  pIC50: > 6.00

## O=C1Nc2ccc(C(=O)c3cccc([N+](=O)[O-])c3)cc2C1=Cc1cc(Br)c(O)c(Br)c1 [Example 96, 3-(3,5-Dibromo-4-hydroxy-benzylidene)-5-(3-nitro-benzoyl)-1,3-dihydro-indol-2-one]
  pIC50: > 6.00

## O=C1Nc2ccc(C(=NO)c3ccccc3)cc2C1=Cc1cc(Br)c(O)c(Br)c1 [Example 97, 3-(3,5-Dibromo-4-hydroxy-benzylidene)-5-((hydroxyimino)-phenyl-methyl)-1,3-dihydro-indol-2-one]
  pIC50: > 6.00

## CCC(=O)c1ccc2c(c1)C(=Cc1cc(Cl)c(O)c(Cl)c1)C(=O)N2 [Example 98, 3-(3,5-Dichloro-4-hydroxy-benzylidene)-5-propionyl-1,3-dihydro-indol-2-one]
  pIC50: > 6.00

## NS(=O)(=O)c1ccc2c(c1)C(=Cc1cc(Cl)c(O)c(Cl)c1)C(=O)N2 [Example 99, 3-(3,5-Dichloro-4-hydroxy-benzylidene)-2-oxo-2,3-dihydro-1H-indole-5-sulfonic acid amide]
  pIC50: > 6.00

## O=C1Nc2ccc(S(=O)(=O)N3CCCC3)cc2C1=Cc1cc(Cl)c(O)c(Cl)c1 [Example 100, 3-(3,5-Dichloro-4-hydroxy-benzylidene)-5-(pyrrolidine-1-sulfonyl)-1,3-dihydro-indol-2-one]
  pIC50: > 6.00

## COc1cc(C=C2C(=O)Nc3ccccc32)cc([N+](=O)[O-])c1O [Example 101, 3-(4-Hydroxy-3-methoxy-5-nitro-benzylidene)-1,3-dihydro-indol-2-one]
  pIC50: 5.00 to 6.00

## COc1cc(C=C2C(=O)Nc3ccccc32)cc(I)c1O [Example 102, 3-(4-Hydroxy-3-iodo-5-methoxy-benzylidene)-1,3-dihydro-indol-2-one]
  pIC50: 5.00 to 6.00

## CC(=O)Oc1c(Br)cc(C=C2C(=O)Nc3ccc(Cl)cc32)cc1Br [Example 103, 2,6-Dibromo-4-[(5-chloro-2-oxo-1,2-dihydro-3H-indol-3-ylidene)methyl]phenyl acetate]
  pIC50: 4.00 to 5.00

## COc1cc(C=C2C(=O)Nc3ccc(I)cc32)cc([N+](=O)[O-])c1O [Example 104, 3-(4-Hydroxy-3-methoxy-5-nitro-benzylidene)-5-iodo-1,3-dihydro-indol-2-one]
  pIC50: > 6.00

## O=C1Nc2ccc([N+](=O)[O-])cc2C1=Cc1cc(O)c(O)c(Cl)c1 [Example 105, 3-(3-Chloro-4,5-dihydroxy-benzylidene)-5-nitro-1,3-dihydro-indol-2-one]
  pIC50: > 6.00

## CC(C)N(C(=O)Oc1c(Br)cc(C=C2C(=O)Nc3ccc(Cl)cc32)cc1Br)C(C)C [Example 106, 2,6-Dibromo-4-[(5-chloro-2-oxo-1,2-dihydro-3H-indol-3-ylidene)methyl]phenyl N,N-diisopropylcarbamate]
  pIC50: 4.00 to 5.00

## CN(C)CC(=O)c1ccc2c(c1)C(=Cc1cc(Br)c(O)c(Br)c1)C(=O)N2 [Example 107, 3-(3,5-Dibromo-4-hydroxy-benzylidene)-5-(2-dimethylamino-acetyl)-1,3-dihydro-indol-2-one]
  pIC50: > 6.00

## CCN(CCO)CC(=O)c1ccc2c(c1)C(=Cc1cc(Br)c(O)c(Br)c1)C(=O)N2 [Example 108, 3-(3,5-Dibromo-4-hydroxy-benzylidene)-5-{2-[N-ethyl-N-(2-hydroxy-ethyl)-amino]-acetyl}-1,3-dihydro-indol-2-one]
  pIC50: > 6.00

## O=C1Nc2c(F)cccc2C1=Cc1cc(Br)c(O)c(Br)c1 [Example 109, 3-(3,5-Dibromo-4-hydroxy-benzylidene)-7-fluoro-1,3-dihydro-indol-2-one]
  pIC50: > 6.00

## CN1CCN(CC(=O)c2ccc3c(c2)C(=Cc2cc(Br)c(O)c(Br)c2)C(=O)N3)CC1 [Example 110, 3-(3,5-Dibromo-4-hydroxy-benzylidene)-5-[2-(4-methyl-piperazin-1-yl)-acetyl]-1,3-dihydro-indol-2-one]
  pIC50: > 6.00

## O=C1Nc2cc(-c3ccccc3)ccc2C1=Cc1cc(Br)c(O)c(Br)c1 [Example 112, 3-(3,5-Dibromo-4-hydroxy-benzylidene)-6-phenyl-1,3-dihydro-indol-2-one]
  pIC50: 5.00 to 6.00

## CC(C)Oc1ccc2c(c1)NC(=O)C2=Cc1cc(Br)c(O)c(Br)c1 [Example 113, 3-(3,5-Dibromo-4-hydroxy-benzylidene)-6-isopropoxy-1,3-dihydro-indol-2-one]
  pIC50: 5.00 to 6.00

## O=C1Nc2ccc(C(=O)CCl)cc2C1=Cc1cc(I)c(O)c(I)c1 [Example 114, 5-(2-Chloro-acetyl)-3-(3,5-diiodo-4-hydroxy-benzylidene)-1,3-dihydro-indol-2-one]
  pIC50: > 6.00

## CCN(CC)S(=O)(=O)c1ccc2c(c1)C(=Cc1cc(Cl)c(O)c(Cl)c1)C(=O)N2 [Example 115, 3-(3,5-Dichloro-4-hydroxy-benzylidene)-2-oxo-2,3-dihydro-1H-indol-5-sulfonic acid diethylamide]
  pIC50: > 6.00

## O=C1Nc2ccc(S(=O)(=O)N3CCOCC3)cc2C1=Cc1cc(Cl)c(O)c(Cl)c1 [Example 116, 3-(3,5-Dichloro-4-hydroxy-benzylidene)-5-(morpholine-4-sulfonyl)-1,3-dihydro-indol-2-one]
  pIC50: > 6.00

## CC(=O)N1CCc2cc3c(cc21)C(=Cc1cc(Br)c(O)c(Br)c1)C(=O)N3 [Example 118, 5-Acetyl-3-(3,5-dibromo-4-hydroxy-benzylidene)-3,5,6,7-tetrahydro-1H-pyrrolo[2,3-f]indol-2-one]
  pIC50: > 6.00

## CCc1ccc2c(c1)C(=Cc1cc(Br)c(O)c(Br)c1)C(=O)N2 [Example 120, 3-(3,5-Dibromo-4-hydroxy-benzylidine)-5-ethyl-1,3-dihydro-indol-2-one]
  pIC50: > 6.00

## O=C1Nc2cc(Br)ccc2C1=Cc1cc(Br)c(O)c(Br)c1 [Example 123, 6-Bromo-3-(3,5-dibromo-4-hydroxy-benzylidene)-1,3-dihydro-indol-2-one]
  pIC50: > 6.00

## O=C1Nc2ccc(-c3csc(-c4ccccc4)n3)cc2C1=Cc1cc(Cl)c(O)c(Cl)c1 [Example 124, 3-(3,5-Dichloro-4-hydroxy-benzylidene)-5-(2-phenyl-thiazol-4-yl)-1,3-dihydro-indol-2-one]
  pIC50: > 6.00

## O=C1Nc2ccc(-c3csc(-c4ccccc4)n3)cc2C1=Cc1cc(Br)c(O)c(Br)c1 [Example 125, 3-(3,5-Dibromo-4-hydroxy-benzylidene)-5-(2-phenyl-thiazol-4-yl)-1,3-dihydro-indol-2-one]
  pIC50: > 6.00

## O=C1Nc2ccc(-c3csc(Nc4ccccc4)n3)cc2C1=Cc1cc(Br)c(O)c(Br)c1 [Example 126, 3-(3,5-Dibromo-4-hydroxy-benzylidene)-5-(2-phenylamino-thiazol-4-yl)-1,3-dihydro-indol-2-one]
  pIC50: > 6.00

## O=C1Nc2ccc(-c3csc(Nc4ccccc4)n3)cc2C1=Cc1cc(Cl)c(O)c(Cl)c1 [Example 127, 3-(3,5-Dichloro-4-hydroxy-benzylidene)-5-(2-phenylamino-thiazol-4-yl)-1,3-dihydro-indol-2-one]
  pIC50: > 6.00

## O=C1Nc2ccc(C3=NNC(=S)NC3)cc2C1=Cc1cc(Cl)c(O)c(Cl)c1 [Example 128, 3-(3,5-Dichloro-4-hydroxy-benzylidene)-5-(3-thioxo-2,3,4,5-tetrahydro-[1,2,4]-triazine-6-yl)-1,3-dihydro-indol-2-one]
  pIC50: > 6.00

## O=C1Nc2ccc(C3=NNC(=S)NC3)cc2C1=Cc1cc(Br)c(O)c(Br)c1 [Example 129, 3-(3,5-Dibromo-4-hydroxy-benzylidene)-5-(3-thioxo-2,3,4,5-tetrahydro-[1,2,4]-triazine-6-yl)-1,3-dihydro-indol-2-one]
  pIC50: > 6.00
